# Data published in US11759474B2, “Use of SGLT-2 inhibitors in the drying-off of non-human mammals” (Boehringer Ingelheim Vetmedica GmbH, priority 2020, dated 2023).
# Tests used:
# [1] = Velagliflozin plasma levels after single i.v. dosing in lactating cows; type: in vivo, Holstein-Frisian cows; conditions: i.v. 0.03, 0.3, 3 mg/kg bodyweight, n=4 lactating cows; FIG. 1
# Procedure: (§1) Velagliflozin treatment is tested in n=4 lactating Holstein-Frisian cows. In weekly intervals, velagliflozin is administered intravenously (i.v.) in increasing doses (0.03 mg/kg bodyweight-0.3 mg/kg bodyweight-3 mg/kg bodyweight) in the morning after AM (ante meridian) milking into the right jugular vein in a volume of 2.5 ml of a propylene glycol based solution per 100 kg body weight. Blood samples for determination of velagliflozin plasma levels and urine samples for determination of glucose and creatinine levels are collected one day prior to treatment and ˜8 hours, ˜24 hours and ˜48 hours post treatment and stored frozen until being analysed. Blood glucose and ketone body (beta-hydroxy-butyrate) concentrations are determined immediately after blood collection at the same time points. The total urinary creatinine excreted per day is rather constant in mammals, thus, since urine volume was not determined, the glucose to creatinine ratio was calculated as a surrogate of the total glucose excretion. All animals are milked twice daily, in the morning (ante meridian—AM) and in the late afternoon (post meridian—PM). Throughout the study, milk yield is recorded as kg per animal per milking.
# [2] = system: lactating Holstein-Frisian cows; assay: Urinary glucose excretion normalized to urinary creatinine after single i.v. dosing in lactating cows; type: in vivo; conditions: i.v. 0.03, 0.3, 3 mg/kg bodyweight; urine ~8 h, ~24 h, ~48 h post treatment; FIG. 1
# Procedure: as §1
# [3] = system: lactating Holstein-Frisian cows; assay: Milk yield per milking after single i.v. dosing in lactating cows; type: in vivo; conditions: i.v. 0.03, 0.3, 3 mg/kg bodyweight after AM milking; PM milking about 8 hours after administration; FIG. 2
# Procedure: as §1
# [4] = Blood glucose and ketone body (beta-hydroxy-butyrate) concentrations after treatment in lactating cows; type: in vivo, Holstein-Frisian cows; conditions: after treatment with all dosages (0.03, 0.3, 3 mg/kg bodyweight i.v.)
# Procedure: as §1
smiles,measurement,setting,value
"N#Cc1ccc([C@@H]2O[C@H](CO)[C@@H](O)[C@H](O)[C@H]2O)cc1Cc1ccc(C2CC2)cc1 [velagliflozin, Velagliflozin]",Velagliflozin plasma level,[1],linear dose to exposure relationship
same,urinary glucose excretion normalized to urinary creatinine,[2],increases in a dose/exposure dependent manner
same,milk yield of the subsequent milking (PM),[3],decreases in a dose/exposure dependent manner
same,blood glucose level,[4],within normal reference ranges
same,ketone body level,[4]; beta-hydroxy-butyrate,within normal reference ranges
